Data published in patent US20040186066A1, “Method of treatment with nelfinavir” (AGOURON PHARMACEUTICALS, INC., priority 2003, published 2004).
Counter-ions that a name gives are not always drawn. Like-named read-outs stand apart in the source and are kept apart here.

Assays:
[1] = Example 2: phase 1 crossover 3×3 study, fixed kilocalorie meal at 20% and 50% fat, single-dose pharmacokinetics of nelfinavir 250 mg tablets; type: in vivo, human (normal, healthy volunteers); details: for AUC / AUC(0-inf) / Cmax / AUC(0-t) / half-life / Tmax: human, plasma, oral, 1250 mg; for AUC: read-out: Nelfinavir AUC24; for AUC(0-t): read-out: AUC(0-tlqc), least-squares mean
Protocol: A study was conducted as a phase 1, randomized, open-label, crossover 3×3 study, designed to evaluate the impact of a fixed kilocalorie meal at 20% and 50% fat content on single-dose pharmacokinetic parameters of the nelfinavir 250 mg tablet formulation in normal, healthy volunteers. Subjects were dosed with 1250 mg of nelfinavir 3 times at one-week intervals and 24-hour PK profiles were collected following each of the doses. Each subject was assigned three meals with different fat contents prior to dosing (fasting, 500kcal with 20% fat, 500 kcal with 50% fat) using a Latin square design. Twenty-four subjects entered the study and twenty-two subjects completed it. Each subject received the following treatment in random order on Days 1, 8 and 15: 5×250 mg nelfinavir tablets with fasting; 5×250 mg nelfinavir tablets, with a meal comprising 500Kcal/20% fat; and 5×250 mg nelfinavir tablets with a meal having 500 Kcal/50% fat. The moderate calorie/low fat meal consisted of 500 Kcal with 20% fat (11.3 grams of fat). The moderate calorie/high fat meal consisted of 500 Kcal with 50% fat (27.8 grams of fat). Subjects were administered nelfinavir 1250-mg (five 250-mg tablets) on the morning of the pharmacokinetic evaluations. The nelfinavir terminal half-life (t½) in plasma is typically 3.5 to 5 hours. […] Subjects participated on an outpatient basis; however, subjects were admitted to the in-patient facility the evening prior to each PK evaluation and remained in the in-patient facility for approximately 16 hours post-dosing. The subjects returned the next morning (8 hours later) for their last 24 hr. pharmacokinetic blood draw. All pharmacokinetic evaluations were performed in the in-patient facility. Blood samples were collected and analyzed for plasma concentrations of nelfinavir and M8. For the fasting evaluation, subjects were required to complete an overnight fast of at least 10 hours prior to dosing in the morning. For the fed PK evaluations, subjects were required to complete an overnight fast of at least 10 hours, prior to receiving the protocol-specific standardized breakfast meal. Subjects were given 30 minutes to complete their standardized breakfast meal. Dosing was performed in the morning, immediately following the subject's completion of the standardized breakfast meal and after the subject's predose PK specimen had been collected. Subjects could not ingest water 1 hour prior to or 1 hour after dosing. A standardized lunch was given at least 4 hours after the morning dose and a standardized dinner was given at least 10 hours after the morning dose. Actual sampling times were used for all data evaluation. Mean Cmax and AUC values were calculated as the antilogs of least-squares mean log-transformed values (analogous to geometric means). Ratios and confidence intervals for Cmax and AUC values are also based on log-transformed values. Mean values for all other pharmacokinetic parameters are least-squares means. Ratios and confidence intervals for these parameters are based on untransformed values. Blood samples, 5 mL each, were collected as in Example 1. The timing of each sample collection was as follows: Predose and at 0.5, 1, 2, 3, 4, 6, 8, 12, 16 and 24 hours postdose on Days 1, 8, and 15. All blood samples were kept at […] (using either wet ice or cryoblock) until centrifugation. Blood samples were centrifuged within 1 hour of collection, at 3000 rpm (approximately 2619×g) for 15 minutes, to separate the plasma. The plasma samples were split evenly into 2 aliquots and stored in appropriately labeled polypropylene transport tubes. Plasma was stored frozen at […] or lower until analysis. Pharmacokinetic parameter values were calculated from plasma nelfinavir and M8 concentration-time data using standard noncompartmental pharmacokinetic methods as in Example 1. Plasma concentrations of nelfinavir and M8 were measured by validated high-performance liquid chromatography (HPLC) methods. […]

[2] = meals 517 to 759 Kcal, 153 to 313 Kcal from fat; cited from earlier work
[3] = Kcal/Fat % 500/20% relative to fasting
[4] = Kcal/Fat % 500/50% relative to fasting
[5] = nelfinavir, moderate calorie/high fat meal (500 Kcal/50% fat) vs fasting
[6] = nelfinavir, moderate calorie/low fat meal (500 Kcal/20% fat) vs fasting

Cc1c(O)cccc1C(=O)N[C@@H](CSc1ccccc1)[C@H](O)CN1C[C@H]2CCCC[C@H]2C[C@H]1C(=O)NC(C)(C)C (relative stereo) [nelfinavir, [3S-(3R*, 4aR*, 8aR*, 2′S*, 3′S*)]-2-[2′ hydroxy-3′-phenylthiomethyl-4′-aza-5′-oxo-5′-(2″-methyl-3″-hydroxy-phenyl)pentyl]-decahydroiso-quinoline-3-N-t-butylcarboxamide methanesulfonic acid salt]
Nelfinavir AUC24 (×fasting) [1, 3]: 3.2 X
Nelfinavir AUC∞ (×fasting) [1, 3]: 3.0 X
Nelfinavir Cmax (×fasting) [1, 3]: 2.5 X
Nelfinavir AUC24 (×fasting) [1, 4]: 5.2 X
Nelfinavir AUC∞ (×fasting) [1, 4]: 5.1 X
Nelfinavir Cmax (×fasting) [1, 4]: 3.8 X
AUC ([1]; 1250 mg single dose, fasting): 10000 ng·h/mL
AUC(0-inf) ([1]; 1250 mg single dose, fasting, read-out: Nelfinavir AUC∞): 10700 ng·h/mL
Cmax ([1]; 1250 mg single dose, fasting, read-out: Nelfinavir Cmax): 1630 ng/mL
AUC ([1]; Kcal/Fat % 500/20%): 32600 ng·h/mL
AUC(0-inf) ([1]; Kcal/Fat % 500/20%, read-out: Nelfinavir AUC∞): 32700 ng·h/mL
Cmax ([1]; Kcal/Fat % 500/20%, read-out: Nelfinavir Cmax): 4000 ng/mL
AUC ([1]; Kcal/Fat % 500/50%): 52600 ng·h/mL
AUC(0-inf) ([1]; Kcal/Fat % 500/50%, read-out: Nelfinavir AUC∞): 54600 ng·h/mL
Cmax ([1]; Kcal/Fat % 500/50%, read-out: Nelfinavir Cmax): 6200 ng/mL
AUC(0-t) ([1]; nelfinavir, 5×250-mg tablets during moderate calorie/high fat meal (500 Kcal/50% fat)): 52600 ng·h/mL
AUC(0-inf) ([1]; nelfinavir, 5×250-mg tablets during moderate calorie/high fat meal (500 Kcal/50% fat), read-out: AUC(0-∞), least-squares mean): 54600 ng·h/mL
Cmax ([1]; nelfinavir, 5×250-mg tablets during moderate calorie/high fat meal (500 Kcal/50% fat), read-out: Cmax, least-squares mean): 6160 ng/mL
half-life ([1]; nelfinavir, 5×250-mg tablets during moderate calorie/high fat meal (500 Kcal/50% fat), read-out: t1/2 (terminal half-life), least-squares mean (converted)): 3.43 h
Tmax ([1]; nelfinavir, 5×250-mg tablets during moderate calorie/high fat meal (500 Kcal/50% fat), read-out: tmax, least-squares mean): 4.48 h
AUC(0-t) ([1]; nelfinavir, 5×250-mg tablets during moderate calorie/low fat meal (500 Kcal/20% fat)): 32600 ng·h/mL
AUC(0-inf) ([1]; nelfinavir, 5×250-mg tablets during moderate calorie/low fat meal (500 Kcal/20% fat), read-out: AUC(0-∞), least-squares mean): 32700 ng·h/mL
Cmax ([1]; nelfinavir, 5×250-mg tablets during moderate calorie/low fat meal (500 Kcal/20% fat), read-out: Cmax, least-squares mean): 4040 ng/mL
half-life ([1]; nelfinavir, 5×250-mg tablets during moderate calorie/low fat meal (500 Kcal/20% fat), read-out: t1/2 (terminal half-life), least-squares mean (converted)): 3.08 h
Tmax ([1]; nelfinavir, 5×250-mg tablets during moderate calorie/low fat meal (500 Kcal/20% fat), read-out: tmax, least-squares mean): 4.19 h
AUC(0-t) ([1]; nelfinavir, 5×250-mg tablets single dose, fasting (reference)): 10000 ng·h/mL
AUC(0-inf) ([1]; nelfinavir, 5×250-mg tablets single dose, fasting (reference), read-out: AUC(0-∞), least-squares mean): 10700 ng·h/mL
Cmax ([1]; nelfinavir, 5×250-mg tablets single dose, fasting (reference), read-out: Cmax, least-squares mean): 1630 ng/mL
half-life ([1]; nelfinavir, 5×250-mg tablets single dose, fasting (reference), read-out: t1/2 (terminal half-life), least-squares mean (converted)): 4.1 h
Tmax ([1]; nelfinavir, 5×250-mg tablets single dose, fasting (reference), read-out: tmax, least-squares mean): 2.42 h
half-life ([1]; nelfinavir, fasting subjects and test meals, similar, read-out: elimination t½, average (converted)): ~4 h
Tmax ([1]; nelfinavir, meal of 20% fat content (500 kcal), read-out: mean tmax longer relative to fasting subjects): ~2 h
Tmax ([1]; nelfinavir, meal of 50% fat content (500 kcal), read-out: mean tmax longer relative to fasting subjects): ~2 h
AUC increase compared to the fasting AUC ([1]; nelfinavir, 500 Kcal, 50% fat breakfast): 5.2 fold
AUC increase compared to the fasting AUC ([1]; nelfinavir, 500 kcal, 20% fat breakfast): 3.2 fold
% coefficient of variation (CV) for AUC(0-∞) ([1]; nelfinavir, fasting subjects): 75%
bioavailability higher relative to fasting subjects, based on AUC(0-∞) ([1]; nelfinavir, meal containing 20% fat (500 kcal)): approximately 3 fold
bioavailability higher relative to fasting subjects, based on AUC(0-∞) ([1]; nelfinavir, meal containing 50% fat (500 kcal)): ~5 fold
mean Cmax higher relative to fasting ([1]; nelfinavir, meal of 20% fat content (500 kcal)): approximately 2.5 fold
mean Cmax higher relative to fasting ([1]; nelfinavir, meal of 50% fat content (500 kcal)): ~3.8 fold
AUC(0-tlqc) ratio (100% × test/reference) [1, 5]: 524%
AUC(0-∞) ratio (100% × test/reference) [1, 5]: 508%
Cmax ratio (100% × test/reference) [1, 5]: 378%
t1/2 ratio (100% × test/reference) [1, 5]: 83.7%
tmax ratio (100% × test/reference) [1, 5]: 186%
AUC(0-tlqc) ratio (100% × test/reference) [1, 6]: 325%
AUC(0-∞) ratio (100% × test/reference) [1, 6]: 305%
Cmax ratio (100% × test/reference) [1, 6]: 248%
t1/2 ratio (100% × test/reference) [1, 6]: 75.0%
tmax ratio (100% × test/reference) [1, 6]: 173%
% coefficient of variation (CV) for AUC(0-∞) ([1]; nelfinavir, test meal containing 20% fat): 48%
% coefficient of variation (CV) for AUC(0-∞) ([1]; nelfinavir, test meal containing 50% fat): 43%
AUC, fed compared to fasting [2]: two to three-fold higher
maximum plasma concentrations, fed compared to fasting [2]: two to three-fold higher
